According to patent publication US10119958B2, “Arrays and methods for guided cell patterning” (University of Washington, priority 2007, dated 2018):
Where no end group is shown, it is not given here.

What was measured:
HUVE cells [1] = assay: Quantification of HUVE cell adhesion on gold-patterned silicon substrates (cell coverage, single cell ratio); type: cell-based, human; conditions: HUVE cells cultured 18 hours; 20 μm gold squares; 378 cell adhesion regions
Experimental: Thus, quantification of single cell coverage is necessary for understanding the capability of this peptide-mediated cell adhesion process. HUVE cells were cultured on fibronectin and peptide modified platforms in standard culture media for 18 hours and stained with DAPI for cell nuclei to emit blue fluorescence. Fluorescence microscopy was used to identify single or multiple cells on gold square-based cell adhesion regions. Cell coverage and single cell population for each type of surface were quantified from 378 gold square-based cell adhesion regions (3 samples×2 areas of interest with 63 cell adhesion regions per area). Cell coverage was calculated from the ratio of gold square-based cell adhesion regions covered with cells to the total number of the cell adhesion regions in the area of interest, and single cell ratio was obtained by dividing the number of gold square-based cell adhesion regions covered with single cells to the total number of cell adhesion regions covered with cells (single or multiple). Exemplary images of adhered cells on three model platforms are shown in FIGS. 9A-D, and quantification results are shown in Table 1. As expected, the fibronectin and KREDVY modified surfaces have higher cell coverage than the REDVY modified surface due to larger number binding domains available on the former two surfaces than on the latter. Both peptide modified surfaces have much higher single cell ratios than the fibronectin modified surface. Clearly, the KREDVY modified surface is the best candidate for single cell patterning in light of both cell coverage and single cell ratio. As a side note, for electrical recording, it is easy to distinguish between single and multiple cells, allowing either type of site to be observed selectively.
HUVE cells were cultured in EGM-2 medium supplemented with bovine brain extract (BBE), hydrocortisone, hFGF-B, VEGF, R3-IGF-1, ascorbic acid, heparin, FBS, hEGF, and GA-1000. The final serum concentration was 2%. Cells were seeded on culture flasks at passage 1 and the medium was changed after 24 hours. At 70% confluency, cells were subcultured as follows. After aspiration from culture flasks, cells were rinsed with 2-3 ml of HEPES-BSS buffer solution for 3 times, followed by incubation with 2 ml of trypsin/EDTA solution. The trypsinization process continued until about 90% of the cells were collected. After cells were released, the trypsin was neutralized in the flask with 4 ml of TNS, and the detached cells were transferred to a 15-ml sterile centrifuge tube. The harvested cells were centrifuged at 220 g for 5 minutes. Cells were diluted in growth medium. Cells at a concentration of 1.5×10^5 cells/ml were seeded on the substrates. The substrates were incubated for 18 hours before fixation with a mixture of 2% glutaraldehyde and paraformaldehyde in phosphate buffer solution for optical microscopy and with 4% paraformaldehyde for fluorescence microscopy.

HUVE cells [2] = assay: Cell viability assay (apoptosis and necrosis, Annexin V / propidium iodide) of patterned HUVE cells; type: cell-based, human; conditions: after 7 days of cell adhesion
Text: Retaining cell viability after cell adhesion is essential for cell biology studies and biomedical applications such as cell-based sensors and drug screening microarrays. The viability of cells patterned on the three model platforms were studied with an apoptosis assay noted in EXAMPLE section. FIGS. 10A-F show fluorescence images of HUVE cells on cell patterning platforms immobilized with (a) fibronectin, (b) REDVY peptide, and (c) KREDVY peptide after 7 days of cell adhesion. Cells on the platform with chemically bound fibronectin appeared apoptotic and necrotic (FIGS. 10A and 10D). This might be caused by the competitive adhesion of multiple cells on a limited surface area of the gold square-based cell adhesion regions, hindering individual cell growth and survival. […] Because the conformation of fibronectin protein on the gold square-based cell adhesion regions varies from site to site, the degree of interactions of HUVE cells with the binding peptides of the protein and the number of cells attached on each site can differ from pattern to pattern.
VYBRANT apoptosis assay allows for the simultaneous visualization of viable, necrotic, and apoptotic cells on substrates. Necrosis results from direct cell damage; apoptosis is genetically-programmed cell death in which cells effectively commit suicide. […] The substrates were incubated with 100 μL of Annexin V and 2 μL of PI solution for 15 minutes at room temperature, washed twice with binding buffer, and imaged with a fluorescence microscope.

[3] = tested on: RAW264.7 cells (murine monocyte/macrophage); assay: Synchrotron FTIR spectromicroscopy of patterned macrophage cells exposed to LPS; type: cell-based; conditions: for peak of amide I group post-exposure: single cells, eight electrodes of two substrates
Text: Cells in an isolated state (e.g., one cell on each microelectrode) generally respond differently to an external stimulus than when they are in a communicating state (e.g., a cluster of cells on a microelectrode).
IR spectra and optical reflectance DIC images were acquired from cells on the patterned substrates with single or a group of macrophage cells on each electrode both before and after cellular exposure to LPS. Synchrotron FTIR spectra were acquired from cell-patterned surfaces with a Nicolet Magna 760 FTIR bench and a Nicolet Nic-Plan™ IR microscope equipped with a computer-controlled x-y-z sample stage (via Nicolet Atlμs™ and OMNIC software) and an MCT-A detector at Beamline 1.4.3 of the Advanced Light Source (ALS) in Lawrence Berkeley National Laboratory, Berkeley. C A. Martin, M. C. and McKinney, R. W., Proceed. Mater. Res. Soc. 524, 11-15, 1998; C A. Martin, M. C. and McKinney, R. W., Proceedings of the Low Energy Electrodynamics in Solids, '99 Conference, Pécs, Hungary, Special Issue of Ferroelectrics, 249, 1-10, 2001. In order to align the incident IR beam onto the substrate, an IR map (with 2-10 μm step size in x-y plane) was acquired around a gold electrode for a full IR range of 400-10,000 wave numbers. Under this condition, the whole spectrum appeared as a broad peak and an intensity profile was given for the mapped region. The x, y positions were adjusted so that the highest intensity region of the beam was aligned with the center of the gold electrode. The samples were measured at wave numbers of 650-10,000 cm^−1 using an XT-KBr beamsplitter and an MCT detector. The synchrotron infrared light is focused to a diffraction-limited spot size with a wavelength-dependent diameter of approximately 3-10 μm across the mid-IR range of interest. Carr, G. L. Review of Scientific Instruments 72, 1613-1619, 2001; and Dumas, P., et al., Faraday Discussions 126, 289-302, 2004. An on-stage temperature controlled mini incubator was used to maintain a proper environment for cellular analysis. Prior to infrared analysis, dead and loosely bound cells were removed from the substrate by three PBS washes (to eliminate the possible interference of dead and loosely bound cells to the real-time signals generated by live cells), the cell culture medium was replaced with fresh sterile medium, and the substrate covered with a layer of the medium was transferred to the mini incubator. The spectra were acquired in less than 10 minutes following the sample transfer to ensure cell viability and to minimize possible interference from environmental changes. Synchrotron FTIR spectra of 128 scans at a resolution of 8 cm^−1 were acquired from individual electrodes patterned with cells. Background signals were collected from the silicon oxide surface of the same substrate right before the data collection. […] All spectra were baseline-corrected and normalized to account for the continuous decay of the synchrotron beam in the storage ring. An appropriately scaled water vapor spectrum was subtracted from the spectra of cells. The spectra obtained with conventional FTIR were acquired from cell-patterned surfaces using a Thermo-Electron Nexus 870 bench and a Thermo-Electron Continuum infrared microscope with an MCT-A detector at Beamline 1.4.4 of the ALS under the same conditions set for the synchrotron measurements, except that an aperture size of 90 μm×90 μm were employed to maximize the signal intensity.

[4] = tested on: RAW264.7 cells (murine monocyte/macrophage); assay: DIC reflectance microscopy of macrophage morphology after LPS exposure; type: cell-based; conditions: LPS 0.1, 1.0 and 10 μg/mL, 21 hours
Text: Cell-cultured surfaces were examined with a differential interference contrast (DIC) reflectance microscope (Nikon E800 Upright Microscope, NY, N.Y.) equipped with DIC-20× (N.A. 0.46) and DIC-50× (N.A. 0.8) objectives. Images were acquired with a Coolsnap camera (series A99G81021, Roper Scientific Inc., AZ, USA) attached to the microscope and a computer. […] FIGS. 12A, 12C, and 12E are optical DIC images of electrodes with a single cell, double cells, and triple cells, respectively.

[5] = LPS 1 μg/mL, 21 hours, 10 μm×10 μm electrodes, mean±S.D. of four electrodes

For Arg-Glu-Asp-Val-Tyr (REDVY), the “% Cell Coverage” value (HUVE cells [1]) was 56.28 ± 3.03%, the “% Ratio of single-cell sites/total cell sites” value (HUVE cells [1]) was 62.25 ± 3.23% and the “cell apoptosis / viability (Annexin V)” value (HUVE cells [2]) was “became apoptotic at day 7”. The “cell necrosis (propidium iodide)” value (HUVE cells [2]) was “No cell necrosis was observed”.

Fibronectin was tested, and the “% Cell Coverage” value (HUVE cells [1]) was 83.47 ± 3.20%, the “% Ratio of single-cell sites/total cell sites” value (HUVE cells [1]) was 27.41 ± 3.64% and the “cell apoptosis / viability (Annexin V)” value (HUVE cells [2]) was “apoptotic”. For the same substance, the “cell necrosis (propidium iodide)” value (HUVE cells [2]) was “necrotic”.

In the case of KREDVY, the “% Cell Coverage” value (HUVE cells [1]) is reported as 78.40 ± 3.96%, the “% Ratio of single-cell sites/total cell sites” value (HUVE cells [1]) is reported as 72.17 ± 2.49% and the “cell apoptosis / viability (Annexin V)” value (HUVE cells [2]) is reported as “remained viable throughout 7 days”. The “cell necrosis (propidium iodide)” value (HUVE cells [2]) was “No cell necrosis was observed”.

lipopolysaccharide [LPS] was tested, and the “Amide I wave number, Double cells” value [3, 5] was 1665 ± 2.6 cm⁻¹, the “Amide I wave number, Single cell” value [3, 5] was 1661 ± 1.6 cm⁻¹ and the “Amide I wave number, Triple cells” value [3, 5] was 1658 ± 3.4 cm⁻¹. The “peak of amide I group post-exposure” value ([3]; 0.1 μg/mL LPS, 21 hours) was 1659 ± 1.7 cm⁻¹, the “peak of amide I group post-exposure” value ([3]; 1 μg/mL LPS, 21 hours) was 1661 ± 1.0 cm⁻¹ and the “peak of amide I group post-exposure” value ([3]; 10 μg/mL LPS, 21 hours) was 1676 ± 1.0 cm⁻¹. The “shift in wave number” value ([3]; single-cell platform, LPS 1.0 μg/mL) was 30 cm⁻¹ and the cell morphology [4] was “enlarged, dendritic-like shape”.
